From patent US7601856B2 (Wyeth, priority 2006, dated 2009)
Like-named read-outs stand apart in the source and are kept apart here. Blank lines part the entries; values can stand above or below the molecule they belong to.

System: isolated rat bladder strips
Experiment: Inhibition of contractions of isolated rat bladder strips
Conditions: for IC50: 0.5 h; for inhibition at 30 µM: read-out: % Inhibition of Contractility @ 30 μM
Method: The compounds of the examples were tested to determine their ability to inhibit contractions of isolated rat bladder strips. See Foster, C. […] Malmgren, A. et al. J.Urol.
Male Sprague-Dawley rats (150-200 g) were obtained from ACE animal suppliers. Animals were allowed free access to food and water.
Animals were euthanized by CO2 asphyxiation followed by a bilateral thoracotomy. […] The bladder was opened and then cut into strips 1-2 mm in width and 7-10 mm in length. The strips were subsequently suspended in a 10 ml tissue bath under an initial resting tension of 1.5 g. The strips were held in place by two surgical clips one of which was attached to a fixed hook while the other was attached to an isometric force transducer. […] The carbachol was then washed out and the tissue allowed to relax to its resting level of activity. Following a further 30 minute period of recovery an additional 15 mM KCl were introduced into the tissue bath. […] Following stabilization of this enhanced level of contractile activity, incremental increases in the concentration of test compound or vehicle were introduced into the tissue bath. Contractile activity was measured for each compound or vehicle concentration during the last minute of a 30 minute challenge.
Isometric force developed by the bladder strips was measured using a force transducer and recorded on a polygraph. Contractile activity was assessed by measuring either the average amplitude of the contractions (baseline to peak force) occurring during a one minute period or, preferably, by integrating the contractile activity with respect to time (one minute measuring period).
The percentage inhibition of contractile activity evoked by each concentration of a given test compounds was used to generate a concentration-response curve.

[1] = concentration eliciting 50% inhibition of pre-drug contractile activity, strips stimulated with additional 15 mM KCl, 30 minute challenge per concentration, read-out: IC50
[2] = maximum percentage inhibition of contractile activity, 30 μM, strips stimulated with additional 15 mM KCl

IC50 [1]: 1.5 to 2 µM
Compound: C[C@@H](OCc1ccccc1)C(NC(=O)OC(C)(C)C)C(=O)Nc1ccc2oc3c(c2c1)CCCCC3 (stereo in doubt) [Example 59, TERT-BUTYL {(1R,2R)-2-(BENZYLOXY)-1-[(7,8,9,10-TETRAHYDRO-6H-BENZO[B]CYCLOHEPTA[D]FURAN-2-YLAMINO)CARBONYL]PROPYL}CARBAMATE]

IC50 [1]: 10 to 15 µM
Compound: CCCC(=O)Nc1ccc2oc3c(c2c1)CCCC3 [Example 10, N-(6,7,8,9-TETRAHYDRO-DIBENZOFURAN-2-YL)-BUTYRAMIDE]

Compound: O=C(Nc1ccc2oc3c(c2c1)CCCC3)c1ccc(Cl)cc1 [Example 17, 4-CHLORO-N-(6,7,8,9-TETRAHYDRO-DIBENZOFURAN-2-YL)-BENZAMIDE]
inhibition at 30 µM [2]: 25 to 30%

Compound: O=C(Nc1ccc2oc3c(c2c1)CCCC3)c1ccc(F)cc1 [Example 19, 4-FLUORO-N-(6,7,8,9-TETRAHYDRODIBENZO[B,D]FURAN-2-YL)BENZAMIDE]
inhibition at 30 µM [2]: 25 to 35%

Compound: O=C(Nc1ccc2oc3c(c2c1)CCCC3)c1ccc(C(F)(F)F)cc1 [Example 20, N-(6,7,8,9-TETRAHYDRODIBENZO[B,D]FURAN-2-YL)-4-(TRIFLUOROMETHYL)BENZAMIDE]
inhibition at 30 µM [2]: 15 to 40%

Compound: O=C(CCc1ccccc1)Nc1ccc2oc3c(c2c1)CCCC3 [Example 21, 3-PHENYL-N-(6,7,8,9-TETRAHYDRODIBENZO[B,D]FURAN-2-YL)PROPANAMIDE]
inhibition at 30 µM [2]: 10 to 30%

IC50 [1]: 1 to 3 µM
Compound: CCCCCC(=O)Nc1ccc2oc3c(c2c1)CCCC3 [Example 22, N-(6,7,8,9-TETRAHYDRODIBENZO[B,D]FURAN-2-YL)HEXANAMIDE]

Compound: O=C(Cc1ccc(F)cc1)Nc1ccc2oc3c(c2c1)CCCCC3 [Example 30, 2-(4-FLUOROPHENYL)-N-(7,8,9,10-TETRAHYDRO-6H-BENZO[B]CYCLOHEPTA[D]FURAN-2-YL)ACETAMIDE]
inhibition at 30 µM [2]: 30 to 50%

IC50 [1]: 3 to 5 µM
Compound: CCCCC(=O)Nc1ccc2oc3c(c2c1)CCCCC3 [Example 31, N-(7,8,9,10-TETRAHYDRO-6H-BENZO[B]CYCLOHEPTA[d]FURAN-2-YL)PENTANAMIDE]

IC50 [1]: 9 to 12 µM
Compound: CCOC(=O)CCC(=O)Nc1ccc2oc3c(c2c1)CCCCC3 [Example 32, ETHYL 4-OXO-4-(7,8,9,10-TETRAHYDRO-6H-BENZO[B]CYCLOHEPTA[D]FURAN-2-YLAMINO)BUTANOATE]

IC50 [1]: 2 to 3 µM
Compound: CC(C)(C)c1ccc(C(=O)Nc2ccc3oc4c(c3c2)CCCCC4)cc1 [Example 33, 4-TERT-BUTYL-N-(7,8,9,10-TETRAHYDRO-6H-BENZO[B]CYCLOHEPTA[D]FURAN-2-YL)BENZAMIDE]

IC50 [1]: 0.5 to 0.8 µM
Compound: CCC(=O)Nc1ccc2oc3c(c2c1)CCCCC3 [Example 34, N-(7,8,9,10-TETRAHYDRO-6H-BENZO[B]CYCLOHEPTA[D]FURAN-2-YL)PROPANAMIDE]

IC50 [1]: 6 to 9 µM
Compound: CCCCCC(=O)Nc1ccc2oc3c(c2c1)CCCCC3 [Example 35, N-(7,8,9,10-TETRAHYDRO-6H-BENZO[B]CYCLOHEPTA[D]FURAN-2-YL)HEXANAMIDE]

IC50 [1]: 3 to 5 µM
Compound: O=C(CCc1ccccc1)Nc1ccc2oc3c(c2c1)CCCCC3 [Example 36, 3-PHENYL-N-(7,8,9,10-TETRAHYDRO-6H-BENZO[B]CYCLOHEPTA[D]FURAN-2-YL)PROPANAMIDE]

Compound: O=C(Cc1cccs1)Nc1ccc2oc3c(c2c1)CCCCC3 [Example 37, N-(7,8,9,10-TETRAHYDRO-6H-BENZO[B]CYCLOHEPTA[D]FURAN-2-YL)-2-THIEN-2-YLACETAMIDE]
inhibition at 30 µM: 20 to 40%

Compound: O=C(Nc1ccc2oc3c(c2c1)CCCCC3)c1ccc(C(F)(F)F)cc1 [Example 38, N-7,8,9,10-TETRAHYDRO-6H-BENZO[B]CYCLOHEPTA[D]FURAN-2-yl-4-(TRIFLUOROMETHYL)BENZAMIDE]
inhibition at 30 µM [2]: 5 to 10%

Compound: O=C(CCl)Nc1ccc2oc3c(c2c1)CCCCC3 [Example 39, 2-CHLORO-N-7,8,9,10-TETRAHYDRO-6H-BENZO[B]CYCLOHEPTA[D]FURAN-2-YLACETAMIDE]
inhibition at 30 µM: 15 to 35%

Compound: O=C(CN1CCOCC1)Nc1ccc2oc3c(c2c1)CCCCC3 [Example 40, 2-MORPHOLIN-4-YL-N-7,8,9,10-TETRAHYDRO-6H-BENZO[b]CYCLOHEPTA[D]FURAN-2-YLACETAMIDE]
IC50: 1 to 3 µM

Compound: CN(C)CCN(C)CC(=O)Nc1ccc2oc3c(c2c1)CCCCC3 [Example 41]
IC50: 1 to 5 µM

Compound: CN(CCc1ccccn1)CC(=O)Nc1ccc2oc3c(c2c1)CCCCC3 [Example 42, N^2-METHYL-N^2-(2-PYRIDIN-2-YLETHYL)-N^1-7,8,9,10-TETRAHYDRO-6H-BENZO[B]CYCLOHEPTA[D]FURAN-2-YLGLYCINAMIDE]
inhibition at 30 µM: 30 to 40%

Compound: O=C(CN1CCC2(CC1)OCCO2)Nc1ccc2oc3c(c2c1)CCCCC3 [Example 43, 2-(1,4-DIOXA-8-AZASPIRO[4.5]DEC-8-YL)-N-7,8,9,10-TETRAHYDRO-6H-BENZO[b]CYCLOHEPTA[D]FURAN-2-YLACETAMIDE]
IC50: 1 to 3 µM

Compound: CN1CCN(CC(=O)Nc2ccc3oc4c(c3c2)CCCCC4)CC1 [Example 44, 2-(4-METHYLPIPERAZIN-1-YL)-N-7,8,9,10-TETRAHYDRO-6H-BENZO[B]CYCLOHEPTA[D]FURAN-2-YLACETAMIDE]
IC50: 1 to 3 µM

Compound: O=C(COCCO)Nc1ccc2oc3c(c2c1)CCCCC3 [Example 45, 2-(2-HYDROXYETHOXY)-N-7,8,9,10-TETRAHYDRO-6H-BENZO[B]CYCLOHEPTA[D]FURAN-2-YLACETAMIDE]
inhibition at 30 µM: 15 to 25%

Compound: CCN(C)CC(=O)Nc1ccc2oc3c(c2c1)CCCCC3 [Example 46, N^2-ETHYL-N^2-METHYL-N′-7,8,9,10-TETRAHYDRO-6H-BENZO[B]CYCLOHEPTA[D]FURAN-2-YLGLYCINAMIDE]
IC50: 7 to 9 µM

Compound: CN(CCO)CC(=O)Nc1ccc2oc3c(c2c1)CCCCC3 [Example 47, N^2-(2-HYDROXYETHYL)-N^2-METHYL-N′-7,8,9,10-TETRAHYDRO-6H-BENZO[B]CYCLOHEPTA[D]FURAN-2-YLGLYCINAMIDE]
inhibition at 30 µM: 10%

Compound: CC(C)(C)OCC(=O)Nc1ccc2oc3c(c2c1)CCCCC3 [Example 48, 2-TERT-BUTOXY-N-7,8,9,10-TETRAHYDRO-6H-BENZO[B]CYCLOHEPTA[D]FURAN-2-YLACETAMIDE]
inhibition at 30 µM: 10 to 15%

Compound: C[C@H](NC(=O)OCc1ccccc1)C(=O)Nc1ccc2oc3c(c2c1)CCCCC3 [Example 49, BENZYL [(1S)-1-METHYL-2-OXO-2-(7,8,9,10-TETRAHYDRO-6H-BENZO[B]CYCLOHEPTA[D]FURAN-2-YLAMINO)ETHYL]CARBAMATE]
inhibition at 30 µM [2]: 30 to 40%

Compound: O=C(CN1CCN(c2ncccn2)CC1)Nc1ccc2oc3c(c2c1)CCCCC3 [Example 50, 2-(4-PYRIMIDIN-2-YLPIPERAZIN-1-YL)-N-7,8,9,10-TETRAHYDRO-6H-BENZO[B]CYCLOHEPTA[D]FURAN-2-YLACETAMIDE]
IC50: 3 to 5 µM

Compound: CC(C)(C)OC(=O)NCC(=O)Nc1ccc2oc3c(c2c1)CCCCC3 [Example 51, TERT-BUTYL [2-OXO-2-(7,8,9,10-TETRAHYDRO-6H-BENZO[B]CYCLOHEPTA[D]FURAN-2-YLAMINO)ETHYL]CARBAMATE]
inhibition at 30 µM [2]: 25 to 40%

Compound: NCC(=O)Nc1ccc2oc3c(c2c1)CCCCC3 [Example 52, N^1-7,8,9,10-TETRAHYDRO-6H-BENZO[B]CYCLOHEPTA[D]FURAN-2-YLGLYCINAMIDE]
inhibition at 30 µM: 20 to 30%

Compound: CC(C)(C)OC(=O)N[C@@H](Cc1ccccc1)C(=O)Nc1ccc2oc3c(c2c1)CCCCC3 [Example 53, TERT-BUTYL [(1S)-1-BENZYL-2-OXO-2-(7,8,9,10-TETRAHYDRO-6H-BENZO[B]CYCLOHEPTA[D]FURAN-2-YLAMINO)ETHYL]CARBAMATE]
inhibition at 30 µM [2]: 15 to 25%

IC50 [1]: 6 to 8 µM
Compound: CC(C)(C)OC(=O)N1CCC[C@H]1C(=O)Nc1ccc2oc3c(c2c1)CCCCC3 [Example 54, TERT-BUTYL (2S)-2-[(7,8,9,10-TETRAHYDRO-6H-BENZO[B]CYCLOHEPTA[D]FURAN-2-YLAMINO)CARBONYL]PYRROLIDINE-1-CARBOXYLATE]

IC50 [1]: 7 to 10 µM
Compound: CC(C)(C)OC(=O)N[C@@H](Cc1ccncc1)C(=O)Nc1ccc2oc3c(c2c1)CCCCC3 [Example 55, TERT-BUTYL [(1S)-2-OXO-1-(PYRIDIN-4-YLMETHYL)-2-(7,8,9,10-TETRAHYDRO-6H-BENZO[B]CYCLOHEPTA[D]FURAN-2-YLAMINO)ETHYL]CARBAMATE]

IC50 [1]: 0.3 to 0.6 µM
Compound: C[C@H](NC(=O)OC(C)(C)C)C(=O)Nc1ccc2oc3c(c2c1)CCCCC3 [Example 56, TERT-BUTYL [(1S)-1-METHYL-2-OXO-2-(7,8,9,10-TETRAHYDRO-6H-BENZO[B]CYCLOHEPTA[D]FURAN-2-YLAMINO)ETHYL]CARBAMATE]

Compound: O=C(Nc1ccc2oc3c(c2c1)CCCCC3)[C@@H]1CCCN1 [Example 57, N-7,8,9,10-TETRAHYDRO-6H-BENZO[B]CYCLOHEPTA[D]FURAN-2-YL-L-PROLINAMIDE]
inhibition at 30 µM [2]: 20 to 30%

Compound: C[C@H](NC(=O)[C@H](Cc1ccccc1)NC(=O)OCc1ccccc1)C(=O)Nc1ccc2oc3c(c2c1)CCCCC3 [Example 58, N-[(BENZYLOXY)CARBONYL]-L-PHENYLALANYL-N^1-7,8,9,10-TETRAHYDRO-6H-BENZO[B]CYCLOHEPTA[D]FURAN-2-YL-L-ALANINAMIDE]
inhibition at 30 µM [2]: 30 to 40%

IC50 [1]: 1.3 to 2.5 µM
Compound: CC(=O)N1CCC[C@H]1C(=O)Nc1ccc2oc3c(c2c1)CCCCC3 [Example 60, 1-ACETYL-N-7,8,9,10-TETRAHYDRO-6H-BENZO[B]CYCLOHEPTA[D]FURAN-2-YL-L-PROLINAMIDE]
